How the values were obtained:
[1] = tested on: hepatic lipid accumulation; settings: 25 mg icariin/kg diet; corresponding to 4 mg/kg body weight/day; previous published studies; cited from earlier work
[2] = tested on: hepatic steatosis; experiment: Histological analysis of hepatic lipid accumulation in chronic high fat diet mice; type: in vivo, C57Bl/6 mice; settings: HFD mice, six weeks
Source text: (§1) Chronic high fat diet was used in C57Bl/6 mice as an experimental model of hepatic steatosis. Male C57/BL6 mice were either maintained on standard low-fat diet (control; LFD; 10% energy from fat) or placed on a high fat (HFD; 60% energy from fat, Research Diets #D12492, Research Diets, Inc, New Brunswick, N.J.) at six weeks of age to induce obesity and fatty infiltration of the liver. […] Animals were then randomized to treatments for an additional six weeks, with 10 animals per group, as specified in the following examples.
(§2) In this study, the effects of metformin alone (therapeutic dose), subtherapeutic metformin alone, subtherapeutic leucine, and various combinations of leucine, metformin, and resveratrol on liver weight and hepatic lipid accumulation were assessed. The 1.5 g/kg diet of metformin corresponds to a therapeutically effective dose of metformin in humans. […] Likewise, the 24 g/kg dose of leucine represents a sub-therapeutic dose that was predicted to exert no significant independent effects on liver mass or hepatic steatosis. Following induction of hepatic steatosis as described in Example 1, animals were treated according to the following treatment groups as depicted in Table 21:
(§3) In this study, the effects of metformin alone (therapeutic dose) vs. combination therapy with sub-therapeutic amounts of metformin and leucine on liver weight and hepatic lipid accumulation were assessed. Following induction of hepatic steatosis as described in Example 1, animals were treated for six weeks according to the following treatment groups as depicted in Table 22:

[3] = tested on: liver triglycerides; settings: Example 3; HFD mice, six weeks; therapeutic metformin alone 1.5 g/kg diet
Source text: as §1, §3

[4] = tested on: hepatic steatosis; experiment: Prophylactic treatment concurrent with high fat diet: liver mass and hepatic lipid accumulation; type: in vivo, C57Bl/6 mice; settings: treatment and HFD started same day, six weeks, metformin alone 1.5 g/kg diet, with or without resveratrol 12.5 mg/kg diet
Method: In this study, the prophylactic effects of metformin alone, and various combinations of metformin, leucine, and resveratrol on liver mass and hepatic steatosis are assessed. C57Bl/6 mice are assigned to the following experimental groups as depicted in Table 25: Drug treatments and high fat diet feeding (as described in Example 1) are initiated on the same day and are carried out for six weeks. The effects of the treatments and diet on liver mass and hepatic lipid accumulation are assessed as described in the preceding examples. […] In this study, the prophylactic effects of metformin alone, and various combinations of metformin, HMB, and resveratrol on liver mass and hepatic steatosis are assessed. C57Bl/6 mice are assigned to the following experimental groups as depicted in Table 26: Drug treatments and high fat diet feeding (as described in Example 1) are initiated on the same day and are carried out for six weeks. The effects of the treatments and diet on liver mass and hepatic lipid accumulation are assessed as described in the preceding examples. […] In this study, the prophylactic effects of sub-therapeutic leucine alone, and co-administration of leucine and the PDE5-specific inhibitor icariin on liver mass and hepatic steatosis are assessed. […] The effects of the treatments and diet on liver mass and hepatic lipid accumulation are assessed as described in the preceding examples.

[5] = tested on: hepatic steatosis; experiment: Liver weight after six weeks treatment in chronic high fat diet mice; type: in vivo, C57Bl/6 mice; settings: therapeutic metformin alone 1.5 g/kg diet
Source text: as §1, §2, §3

Compound | effect on liver mass or hepatic lipid accumulation [1] | hepatic steatosis (histological analysis) ([2]; Example 2, metformin alone 1.5 g/kg diet, leucine 24 g/kg diet, resveratrol 12.5 mg/kg diet, combination with sub-therapeutic metformin) | hepatic steatosis (histological analysis) ([2]; Example 3, single agents at 'therapeutic dosages' (metformin 1.5 g/kg diet)) | hepatic steatosis (histological analysis) ([2]; Example 4, therapeutic metformin alone 1.5 g/kg diet) | effect on liver triglycerides [3] | HFD-induced increase in liver mass and hepatic lipid accumulation (prophylactic) ([4]; Example 6, leucine 24 g/kg diet + metformin 0.15-0.50 g/kg diet) | HFD-induced increase in liver mass and hepatic lipid accumulation (prophylactic) ([4]; Example 7, HMB (CaHMB, 2 g/kg diet) + metformin 0.15-0.50 g/kg diet) | effect on liver weight ([5]; Example 2, HFD mice, leucine 24 g/kg diet, resveratrol 12.5 mg/kg diet) | effect on liver weight ([5]; Example 3, HFD mice, p<0.02 vs. HFD, n.s. compared to LFD) | effect on liver weight ([5]; Example 4, HFD mice, p<0.03)
COc1ccc(-c2oc3c(CC=C(C)C)c(O[C@@H]4O[C@H](CO)[C@@H](O)[C@H](O)[C@H]4O)cc(O)c3c(=O)c2O[C@@H]2O[C@@H](C)[C@H](O)[C@@H](O)[C@H]2O)cc1 [icariin] | no effect | – | – | – | – | – | – | – | – | –
metformin | – | partial reversal of the effects of HFD on hepatic steatosis | partially reversed hepatic steatosis | partially reversed hepatic steatosis | partially reversed the effect of high fat diet on liver triglycerides | attenuates the HFD-induced increase in liver mass and hepatic lipid accumulation | attenuates the HFD-induced increase in liver mass and hepatic lipid accumulation | partially reverse the effect of high fat diet on liver weight | reversed the effect of high fat diet on liver weight back to control levels | reversed the effect of high fat diet on liver weight back to control levels

Reference: patent US9872844B2, “Compositions and methods for the reduction or prevention of hepatic steatosis” (priority 2014, dated 2018)
